target: CBP (Homo sapiens (Human), UniProt Q92793); assay: In vitro CBP inhibition (AlphaScreen, biotinylated H4-tetraacetyl peptide); assay type: binding; details: not given
In short: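 His-tagged CBP expressed in E. coli (50 nM final) incubated with biotinylated H4K5/8/12/16(Ac) peptide (20 nM final) in 50 mM HEPES pH 7.3, 10 mM NaCl, 0.25 mM TCEP, 0.1% BSA, 0.005% Brij-35, 0.4% DMSO, 20 min at room temp.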

Sequence of CBP (Q92793 1081-1197): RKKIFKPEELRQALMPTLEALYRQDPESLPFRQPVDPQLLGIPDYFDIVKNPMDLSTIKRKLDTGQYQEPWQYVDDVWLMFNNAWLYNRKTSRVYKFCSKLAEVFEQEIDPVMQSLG

Molecule	IC50 [nM]
Cn1cc(-c2cnn(Cc3ccccc3)c2)c(-c2ccccc2Cl)cc1=O [Example 123, 5-(1-benzyl-1H-pyrazol-4-yl)-4-(2-chlorophenyl)-1-methyl-pyridin-2(1H)-one]	500 to 5000

same assay, conditions: AlphaScreen, Table 29; read-out: CBP IC50

Molecule	IC50 [nM]
N-{2-[5-(1-benzyl-1H-pyrazol-4- yl)-1-methyl-2-oxo-1,2-dihydro- pyridin-4-yl]-cyclo- pentyl}-acetamide [Example 88]	< 500
COc1ccc(-c2cc(=O)n(C)cc2-c2cnn(-c3cccc(F)c3C#N)c2)cn1 [Example 274, 2-Fluoro-6-[4-(6-methoxy-1′-methyl-6′-oxo-1′,6′-dihydro-[3,4′]bipyridinyl-3′-yl)-pyrazol-1-yl]-benzonitrile]	< 500
CCOc1cc(=O)n(C)cc1-c1cnn(C(C)c2ccc(-c3ccccc3)cc2)c1 (stereo not drawn) [Example 63, 5-(1-(1-([1,1′-biphenyl]-4-yl)ethyl)-1H-pyrazol-4-yl)-4-ethoxy-1-methylpyridin-2(1H)-one]	< 500
CCOc1cc(=O)n(C)cc1-c1cnn2c1CCC2 [Example 95, 5-(5,6-dihydro-4H-pyrrolo[1,2-b]-pyrazol-3-yl)-4-ethoxy-1-methylpyridin-2(1H)-one]	< 500
COc1ccc(-c2cc(=O)n(C)cc2-c2cnn(-c3ccccc3-c3nnn[nH]3)c2)cc1 [Example 298, 4-(4-Methoxy-phenyl)-1-methyl-5-{1-[2-(1H-tetrazol-5-yl)-phenyl]-1H-pyrazol-4-yl}-1H-pyridin-2-one]	< 500
CCOc1ccc(-c2cc(=O)n(C)cc2-c2cnn(-c3ccccc3C(=O)NC#N)c2)cn1 [Example 296, N-cyano-2-(4-(6-ethoxy-1′-methyl-6′-oxo-1′,6′-dihydro-[3,4′-bipyridin]-3′-yl)-1H-pyrazol-1-yl)benzamide]	< 500
CC(c1cccnc1)n1cc(-c2ccc(=O)n(C)c2)cn1 (stereo not drawn) [Example 24, 1-methyl-5-(1-(1-(pyridin-3-yl)ethyl)-1H-pyrazol-4-yl)pyridin-2(1H)-one]	500 to 5000
Cn1cc(-c2cnn(Cc3ccccc3)c2)c(N)cc1=O [Example 200, 4-amino-5-(1-benzyl-1H-pyrazol-4-yl)-1-methylpyridin-2(1H)-one]	500 to 5000
CCOc1cc(=O)n(C)cc1-c1cnn(-c2cccc(Cl)c2C#N)c1 [Example 178, 2-Chloro-6-[4-(4-ethoxy-1-methyl-6-oxo-1,6-dihydro-pyridin-3-yl)-pyrazol-1-yl]-benzonitrile]	< 500
Cn1cc(-c2cnn(Cc3ccccc3)c2)c(-c2ccsc2)cc1=O [Example 117, 5-(1-benzyl-1H-pyrazol-4-yl)-1-methyl-4-(thiophen-3-yl) pyridin-2(1H)-one]	< 500
Cn1cc(-c2cnn(-c3cccc(F)c3C#N)c2)c(-c2ccc(Cl)cc2)cc1=O [Example 275, 2-{4-[4-(4-Chloro-phenyl)-1-methyl-6-oxo-1,6-dihydro-pyridin-3-yl]-pyrazol-1-yl}-6-fluoro-benzonitrile]	< 500
CCOc1ccc(-c2cc(=O)n(C)cc2-c2cnn(-c3cc(OC)ccc3C#N)c2)cn1 [Example 265, 2-[4-(6-Ethoxy-1′-methyl-6′-oxo-1′,6′-dihydro-[3,4′]bipyridinyl-3′-yl)-pyrazol-1-yl]-4-methoxy-benzonitrile]	< 500
CC(c1ccccc1)n1cc(-c2cn(C)c(=O)cc2-c2ccn(C)c(=O)c2)cn1 (stereo not drawn) [Example 310, 1,1′-dimethyl-5-(1-(1-phenylethyl)-1H-pyrazol-4-yl)-[4,4′-bipyridine]-2,2′(1H,1′H)-dione]	< 500
Cc1cc(-c2cnn(-c3ccccc3C(=O)O)c2)cn(C)c1=O [Example 255, 2-[4-(1,5-Dimethyl-6-oxo-1,6-dihydro-pyridin-3-yl)-pyrazol-1-yl]-benzoic acid]	< 500
CNC(=O)c1ccc(-c2cc(=O)n(C)cc2-c2cnn(-c3ccccc3C#N)c2)cc1 [Example 219, 4-{5-[1-(2-Cyano-phenyl)-1H-pyrazol-4-yl]-1-methyl-2-oxo-1,2-dihydro-pyridin-4-yl}-N-methyl-benzamide]	< 500
Cn1cc(-c2cn(C)c(=O)cc2-n2ccc(C(=O)O)c2)cn1 [Example 84, 1-(1-methyl-5-(1-methyl-1H-pyrazol-4-yl)-2-oxo-1,2-dihydro-pyridin-4-yl)-1H-pyrrole-3-carboxylic acid]	< 500
Cn1cc(-c2cnn(Cc3ccccc3)c2)c(N2CC[C@@H](NS(C)(=O)=O)C2)cc1=O [Example 174, (R)-N-(1-(5-(1-benzyl-1H-pyrazol-4-yl)-1-methyl-2-oxo-1,2-dihydropyridin-4-yl)pyrrolidin-3-yl)methanesulfonamide]	500 to 5000
CCCn1cc(-c2cn(C)c(=O)cc2-c2ccccc2)cn1 [Example 139, 1-methyl-4-phenyl-5-(1-propyl-1H-pyrazol-4-yl)pyridin-2(1H)-one]	< 500
Cn1ccc(-c2cc(=O)n(C)cc2-c2cnn(-c3ccccc3S(C)(=O)=O)c2)cc1=O [Example 284, 5-[1-(2-Methanesulfonyl-phenyl)-1H-pyrazol-4-yl]-1,1′-dimethyl-1H,1′H-[4,4′]bipyridinyl-2,2′-dione]	< 500
CC(=O)NC[C@H]1CCN(c2cc(=O)n(C)cc2-c2cnn(Cc3ccccc3)c2)C1 (stereo in doubt) [Example 90, N-{1-[5-(1-benzyl-1H-pyrazol-4-yl)-1-methyl-2-oxo-1,2-dihydro-pyridin-4-yl]-pyrrolidin-3-yl-methyl}-acetamide]	500 to 5000
CC(c1ccc(C#N)cc1)n1cc(-c2ccc(=O)n(C)c2)cn1 (stereo not drawn) [Example 25, 4-(1-(4-(1-methyl-6-oxo-1,6-dihydropyridin-3-yl)-1H-pyrazol-1-yl)ethyl)benzonitrile]	500 to 5000
CCOc1cc(=O)n(C)cc1-c1cnn(-c2ccccc2Cl)c1 [Example 97, 5-(1-(2-chloro-phenyl)-1H-pyrazol-4-yl)-4-ethoxy-1-methyl-pyridin-2(1H)-one]	< 500
CNC(=O)[C@H]1CCN(c2cc(=O)n(C)cc2-c2cnn(Cc3ccccc3)c2)C1 [Example 93, 1-[5-(1-benzyl-1H-pyrazol-4-yl)-1-methyl-2-oxo-1,2-dihydro-pyridin-4-yl]-pyrrolidine-3-methylacetamide]	< 500
CCOc1cc(=O)n(C)cc1-c1cnn(-c2c(Cl)cccc2Cl)c1 [Example 98, 5-(1-(2,6-dichlorophenyl)-1H-pyrazol-4-yl)-4-ethoxy-1-methyl-pyridin-2(1H)-one]	< 500

More lines, now with the values ahead:

IC50 [nM]	Molecule
< 500	CN(C)C(=O)c1ccn(-c2cc(=O)n(C)cc2-c2cnn(Cc3ccccc3)c2)c1 [Example 78, 1-(5-(1-benzyl-1H-pyrazol-4-yl)-1-methyl-2-oxo-1,2-dihydropyridin-4-yl)-N,N-dimethyl-1H-pyrrole-3carboxamide]
< 500	Cn1cc(-c2cnn(-c3cccc(Cl)c3C#N)c2)c(-c2ccc(C3CCCC3)nc2)cc1=O [Example 379, 2-chloro-6-(4-(6-cyclopentyl-1′-methyl-6′-oxo-1′,6′-dihydro-[3,4′-bipyridin]-3′-yl)-1H-pyrazol-1-yl)benzonitrile]
< 500	CC(c1ccccc1)n1cc(-c2cn(C)c(=O)c3c2CCC3)cn1 (stereo not drawn) [Example 33, 2-methyl-4-(1-(1-phenylethyl)-1H-pyrazol-4-yl)-2,5,6,7-tetrahydro-1H-cyclopenta[c]pyridin-1-one]
< 500	CC(c1ccccc1)n1cc(-c2cc(Cl)c(=O)n(C)c2)cn1 (stereo not drawn) [Example 31, 3-chloro-1-methyl-5-(1-(1-phenylethyl)-1H-pyrazol-4-yl) pyridin-2(1H)-one]
< 500	CCOc1cc(=O)n(C)cc1-c1cnn(-c2ccccn2)c1 [Example 253, 4-ethoxy-1-methyl-5-(1-(pyridin-2-yl)-1H-pyrazol-4-yl)pyridin-2(1H)-one]
< 500	Cn1cc(-c2cnn(CC3CC3)c2)c(-c2ccc(Cl)cc2)cc1=O [Example 153, 4-(4-chloro-phenyl)-5-(1-cyclopropylmethyl-1H-pyrazol-4-yl)-1-methyl-1H-pyridin-2-one]
< 500	CCOc1cc(=O)n(C)cc1-c1cnn(-c2cc(OC3CC3)ccc2C#N)c1 [Example 184, 4-Cyclopropoxy-2-[4-(4-ethoxy-1-methyl-6-oxo-1,6-dihydro-pyridin-3-yl)-pyrazol-1-yl]-benzonitrile]
< 500	COc1cc(-c2cc(=O)n(C)cc2-c2cnn(-c3ccccc3C#N)c2)ccn1 [Example 220, 2-[4-(2′-Methoxy-1-methyl-6-oxo-1,6-dihydro-[4,4′]bipyridinyl-3-yl)-pyrazol-1-yl]-benzonitrile]
< 500	CC(c1ccccc1)n1cc(-c2cn(C)c(=O)cc2-n2cccn2)cn1 (stereo not drawn) [Example 53, 1-methyl-5-(1-(1-phenylethyl)-1H-pyrazol-4-yl)-4-(1H-pyrazol-1-yl) pyridin-2(1H)-one]
< 500	Cc1cc(-c2cnn(C(C)c3ccccc3)c2C)cn(C)c1=O (stereo not drawn) [Example 34, 1,3-dimethyl-5-(5-methyl-1-(1-phenylethyl)-1H-pyrazol-4-yl) pyridin-2(1H)-one]
< 500	Cn1cc(-c2cc(=O)n(C)cc2-c2cnn(-c3ccccc3C#N)c2)ccc1=O [Example 209, 2-[4-(1,1′-Dimethyl-6,6′-dioxo-1,6,1′,6′-tetrahydro-[3,4′]bipyridinyl-3′-yl)-pyrazol-1-yl]-benzonitrile]
< 500	COc1ccc(-c2cc(=O)n(C)cc2-c2cnn(-c3ccccc3F)c2)cn1 [Example 319]
500 to 5000	COc1cc(-c2cc(=O)n(C)cc2-c2cnn(-c3ccccc3C#N)c2)cc(OC)c1OC [Example 246, 2-{4-[1-Methyl-6-oxo-4-(3,4,5-trimethoxy-phenyl)-1,6-dihydro-pyridin-3-yl]-pyrazol-1-yl}-benzonitrile]
< 500	Cn1cc(-c2cnn(-c3cccc(Cl)c3C#N)c2)c(-c2cnc(N3CCCC3)nc2)cc1=O [Example 330, 2-chloro-6-(4-(1-methyl-6-oxo-4-(2-(pyrrolidin-1-yl)pyrimidin-5-yl)-1,6-dihydropyridin-3-yl)-1H-pyrazol-1-yl)benzonitrile]

Reference: patent US10617680B2 (CELGENE QUANTICEL RESEARCH, INC., priority 2017, dated 2020)
